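Assay format: 96-well plates, 48-hour exposure. GI50 is the concentration that inhibits growth by half.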 Active and inactive are the calls of the source. Rule as the data show it: active = GI50 up to about 1.1 µM and inactive = higher.
How the values were obtained:
Assay in all cases: DTP human tumour cell line panel, 48 h
786-0 = test system: 786-0
A498 = test system: A498
CAKI-1 = test system: CAKI-1
CCRF-CEM = test system: CCRF-CEM
DU-145 = test system: DU-145
EKVX = test system: EKVX
HCC 2998 = test system: HCC 2998
HCT-116 = test system: HCT-116
HCT-15 = test system: HCT-15
HL-60 = test system: HL-60
HOP-62 = test system: HOP-62
HOP-92 = test system: HOP-92
HT-29 = test system: HT-29
Hs-578T = test system: Hs-578T
IGROV-1 = test system: IGROV-1
K562 = test system: K562
KM12 = test system: KM12
LOX IMVI = test system: LOX IMVI
M14 = test system: M14
MCF7 = test system: MCF7
MDA-MB-231 = test system: MDA-MB-231
MDA-MB-435 = test system: MDA-MB-435
MDA-N = test system: MDA-N
MOLT-4 = test system: MOLT-4
NCI-H226 = test system: NCI-H226
NCI-H23 = test system: NCI-H23
NCI-H460 = test system: NCI-H460
NCI-H522 = test system: NCI-H522
NCI/ADR-RES = test system: NCI/ADR-RES
OVCAR-3 = test system: OVCAR-3
OVCAR-4 = test system: OVCAR-4
OVCAR-5 = test system: OVCAR-5
OVCAR-8 = test system: OVCAR-8
PC-3 = test system: PC-3
RPMI-8226 = test system: RPMI-8226
RXF 393 = test system: RXF 393
SF-268 = test system: SF-268
SF-295 = test system: SF-295
SF-539 = test system: SF-539
SK-MEL-28 = test system: SK-MEL-28
SK-MEL-2 = test system: SK-MEL-2
SK-MEL-5 = test system: SK-MEL-5
SK-OV-3 = test system: SK-OV-3
SR = test system: SR
SW-620 = test system: SW-620
T47D = test system: T47D
TK-10 = test system: TK-10
U-251 = test system: U-251
UACC-257 = test system: UACC-257
UO-31 = test system: UO-31
A549 = test system: A549
ACHN = test system: ACHN
COLO 205 = test system: COLO 205
Malme-3M = test system: Malme-3M
SN12C = test system: SN12C
SNB-19 = test system: SNB-19
SNB-75 = test system: SNB-75
UACC-62 = test system: UACC-62

In the case of `CN1CCN(Cn2nc(COc3ccccc3Cl)n(/N=C/c3ccc(-c4ccc(Cl)cc4Cl)o3)c2=S)CC1`, the GI50 (786-0) is reported as 18.6 µM (inactive), the GI50 (A498) is reported as 19.1 µM (inactive) and the GI50 (CAKI-1) is reported as 22.7 µM (inactive). The GI50 (CCRF-CEM) was 25.6 µM (inactive), the GI50 (DU-145) was 20 µM (inactive) and the GI50 (EKVX) was 39.4 µM (inactive). The GI50 (HCC 2998) was 19.6 µM (inactive), the GI50 (HCT-116) was 18.5 µM (inactive) and the GI50 (HCT-15) was 24.2 µM. For the same compound, the GI50 (HL-60) was 24.8 µM (inactive), the GI50 (HOP-62) was 21.4 µM (inactive) and the GI50 (HOP-92) was 14.3 µM (inactive). The GI50 (HT-29) was 19.5 µM (inactive), the GI50 (Hs-578T) was 84.1 µM (inactive) and the GI50 (IGROV-1) was 28 µM (inactive). The GI50 (K562) was 21.3 µM (inactive), the GI50 (KM12) was 19.7 µM (inactive) and the GI50 (LOX IMVI) was 33.4 µM (inactive). For the same compound, the GI50 (M14) was 28.8 µM (inactive), the GI50 (MCF7) was 19.6 µM (inactive) and the GI50 (MDA-MB-231) was 26.4 µM (inactive). For the same compound, the GI50 (MDA-MB-435) was 24.8 µM (inactive), the GI50 (MDA-N) was 23.5 µM (inactive) and the GI50 (MOLT-4) was 24.5 µM (inactive). The GI50 (NCI-H226) was 51.5 µM (inactive), the GI50 (NCI-H23) was 17.9 µM (inactive) and the GI50 (NCI-H460) was 22.1 µM (inactive). For the same compound, the GI50 (NCI-H522) was 26.2 µM (inactive), the GI50 (NCI/ADR-RES) was 21.7 µM (inactive) and the GI50 (OVCAR-3) was 21.7 µM (inactive). For the same compound, the GI50 (OVCAR-4) was 20 µM (inactive), the GI50 (OVCAR-5) was 35.6 µM (inactive) and the GI50 (OVCAR-8) was 27 µM (inactive). For the same compound, the GI50 (PC-3) was 23.8 µM (inactive), the GI50 (RPMI-8226) was 29.2 µM (inactive) and the GI50 (RXF 393) was 17.3 µM (inactive). The GI50 (SF-268) was 54.5 µM (inactive), the GI50 (SF-295) was 27.4 µM (inactive) and the GI50 (SF-539) was 27 µM (inactive). The GI50 (SK-MEL-28) was 60.5 µM (inactive), the GI50 (SK-MEL-2) was 22.4 µM (inactive) and the GI50 (SK-MEL-5) was 24.8 µM (inactive). The GI50 (SK-OV-3) was 35.5 µM (inactive), the GI50 (SR) was 24.3 µM (inactive) and the GI50 (SW-620) was 16.1 µM (inactive). The GI50 (T47D) was 19.5 µM (inactive), the GI50 (TK-10) was 23.9 µM (inactive) and the GI50 (U-251) was 19.3 µM (inactive). The GI50 (UACC-257) was 34.8 µM (inactive) and the GI50 (UO-31) was 33.2 µM (inactive).

For `C=C1C(=O)OC2C1CCC(C)C1(O)C=CC(=O)C21C` (stereo unspecified), the GI50 (786-0) was 6.11 µM (inactive), the GI50 (A498) was 5.46 µM (inactive) and the GI50 (A549) was > 10 µM (inactive). The GI50 (ACHN) was 5.66 µM (inactive), the GI50 (CCRF-CEM) was 2.73 µM (inactive) and the GI50 (COLO 205) was > 10 µM (inactive). The GI50 (EKVX) was > 10 µM (inactive), the GI50 (HCC 2998) was > 10 µM (inactive) and the GI50 (HCT-116) was 5.04 µM (inactive). The GI50 (HCT-15) was 4.5 µM, the GI50 (HL-60) was 2.39 µM (inactive) and the GI50 (HOP-62) was > 10 µM (inactive). For the same compound, the GI50 (HOP-92) was 3.33 µM (inactive), the GI50 (HT-29) was > 10 µM (inactive) and the GI50 (Hs-578T) was > 10 µM (inactive). The GI50 (IGROV-1) was > 10 µM (inactive), the GI50 (K562) was 4.45 µM (inactive) and the GI50 (KM12) was > 10 µM (inactive). For the same compound, the GI50 (LOX IMVI) was > 10 µM (inactive), the GI50 (MCF7) was > 10 µM (inactive) and the GI50 (MDA-MB-435) was > 10 µM (inactive). For the same compound, the GI50 (MDA-N) was 6.85 µM (inactive), the GI50 (MOLT-4) was 3.1 µM (inactive) and the GI50 (Malme-3M) was > 10 µM (inactive). For the same compound, the GI50 (NCI-H226) was > 10 µM (inactive), the GI50 (NCI-H23) was 7.69 µM (inactive) and the GI50 (NCI-H460) was > 10 µM (inactive). The GI50 (NCI/ADR-RES) was 3.95 µM (inactive), the GI50 (OVCAR-3) was 4.9 µM (inactive) and the GI50 (OVCAR-4) was 7.6 µM (inactive). For the same compound, the GI50 (OVCAR-8) was 3.5 µM (inactive), the GI50 (PC-3) was > 10 µM (inactive) and the GI50 (RPMI-8226) was 5.43 µM (inactive). The GI50 (RXF 393) was 9.31 µM (inactive), the GI50 (SF-268) was > 10 µM (inactive) and the GI50 (SF-295) was > 10 µM (inactive). The GI50 (SF-539) was > 10 µM (inactive), the GI50 (SK-MEL-28) was 5.92 µM (inactive) and the GI50 (SK-MEL-2) was > 10 µM (inactive). The GI50 (SK-MEL-5) was > 10 µM (inactive), the GI50 (SK-OV-3) was > 10 µM (inactive) and the GI50 (SN12C) was > 10 µM (inactive). For the same compound, the GI50 (SNB-19) was > 10 µM (inactive), the GI50 (SNB-75) was 6.65 µM (inactive) and the GI50 (SR) was 3.13 µM (inactive). For the same compound, the GI50 (SW-620) was 3.44 µM (inactive), the GI50 (T47D) was 6.31 µM (inactive) and the GI50 (TK-10) was 6.75 µM (inactive). The GI50 (U-251) was > 10 µM (inactive), the GI50 (UACC-62) was 6.68 µM (inactive) and the GI50 (UO-31) was 3.24 µM (inactive).
